Laboratory results published in patent US12291522B2, “Galectin-3 inhibitors” (BRISTOL-MYERS SQUIBB COMPANY, priority 2020, dated 2025).
Where two headings read alike, the source gives them in different places.

Tests used:
[1] = biological target: His-tagged recombinant human Gal-3 (hGal-3) (Homo sapiens, UniProt P17931); test: Gal-3 HTRF assay (His-tagged hGal-3 / B-ASF); assay type: binding; conditions: 15 nM hGal-3, 15 nM B-ASF
Method: ASSAY BUFFER Composition: 25 mM HEPES, 100 mM NaCl, 0.005% Tween 20, 0.05% BSA prepared in sterile water (all reagents from Sigma).
• Positive Control: 100% DMSO (1 μL)+His-tagged hGal-3 (20 μL)+B-ASF (20 μL)+Anti-His Terbium Antibody (5 μL)+Strep d2 Antibody (5 μL). • Negative Control: 100% DMSO (1 μL)+His-tagged hGal-3 (20 μL)+Anti His Terbium Antibody (5 μL)+Strep d2 Aantibody (5 μL). Stocks Preparation:
PROTOCOL: The Gal-3 assays were performed in 384 white Opti plates in three replicates at room temperature with gentle shaking at 250-300 rpmFrom the original stocks, […] working stock concentrations of His-tagged recombinant human Gal-3 (hGal-3) and that of B-ASF were prepared. From the working stock, 20 μL of hGal-3 (15 nM) and 20 μL B-ASF (15 nM) were added to the plates. In Negative Control, only hGal-3 was added. A concentration range of 50× working stocks were prepared for the compounds in 100% DMSO. Aliquots of luL of the compounds were added to the wells and pre-incubated with 20 μL hGal-3 per well for 30 minutes Then 20 μL B-ASF wereadded and incubated for another 1 hour. To detect the signal, 5 μL (final conc. of 1.0 nM) terbium labelled Anti-His antibody was added and incubated for 30 min followed by adding 5 μL (final conc. of 20 nM) Streptavidin d2 and incubation for another 1 hour. The assay signal was detected using HTRF screen protocol (Excitation wavelength=340 nm, emission wavelength=615 nm/665 nm) on Envision 2104 Multilabel Reader. Data analysed using Toolset and Curve Master. Results are reported in the experimental section (IC50 in μM).

[2] = biological target: T1, hCRBN (NanoLuc-CRBN fusion construct in HEK-293 cells) (Homo sapiens, UniProt Q96SW2); test: CRBN BRET Target Engagement; assay type: cell-based; conditions: NanoLuc-CRBN transfected HEK-293 cells, BRET with CRBN Probe
T1 construct: expressed in transfected cells; host or cells: HEK-293
Method: CRBN BRET Target Engagement (hCRBN IC50 (μM))
NanoLuc-CRBN fusion construct was transfected in HEK-293 cells using FuGENE HD (Promega) according to the manufacturer's protocol. In brief, Nluc-CRBN was diluted into Transfection Carrier DNA (Promega) 1:10 (mass/mass), to which FuGENE HD was 1:3 (μg DNA:μL FuGENE HD). One part (vol) of DNA:FuGENE HD complexes were combined with 20 parts (vol) of HEK-293 cells suspended at a density of […]. Cells were incubated for ˜20 hr at 37° C./5% CO2. Following transfection, cells were washed and resuspended at 200,000 cells/mL in OptiMEM without phenol red (Gibco).
For BRET measurements, cells were seeded in a 384-well nonbinding surface plate (Corning) plate for a final count of 10,000 cells/well. Compounds were dissolved at 10 mM in dimethylsulfoxide (DMSO) and evaluated at eleven concentrations using a high concentration of […]. CRBN Probe was used for equilibrium measurements, employing a final concentration of approximately EC50-80. For live-cell measurements, 20 nM of CRBN Probe was added. For the live-cell assay conditions, the plates were incubated for 2 hours at 37° C./5% CO2. NanoBRET NanoGlo Substrate and Extracellular Nanoluc Inhibitor (Promega) were added according to manufacturer's guidelines. For lytic cell measurements, digitonin was added to the cells to a final concentration of 50 μg/mL and 20 nM of CRBN Probe was added. To measure NanoBRET in permeabilized cells, extracellular Nluc inhibitor was omitted during the detection step. For all BRET experiments, the Envision 2015 (Perkin Elmer) equipped with a BRET2 Enh mirror, BRET 647 nM/75 nM Bandwidth and BC703 460 nM/80 nM Bandwidth filters was used for readouts. Each read was integrated for 0.5 s.
To determine compound potency (IC50), BRET ratios for each dilution series was first normalized to a % Inhibition value via Equation 1, where “S” represents Sample BRET, “B” represents Background BRET, and “T” represents Total BRET. In this equation, the background control (B) consists of NanoLuc-CRBN expressing cells and no CRBN Probe. The total BRET Ratio (T) consists of NanoLuc-CRBN expressing cells, CRBN Probe, and an amount of DMSO at a concentration equivalent to that added when testing compounds.
Following normalization, the percent inhibition values are plotted as a function of compound concentration and fit to Equation 2. […]

[3] = biological target: T2, Gal3 (Human Galectin-3) in THP-1 cells (Homo sapiens, UniProt P17931); test: ELISA Gal3 Degradation Assay in THP-1 Cells; assay type: cell-based; conditions: 48 hours, culture media Gal3 by ELISA
T2 construct: host or cells: THP-1
Method: [formula] ELISA Gal3 Degradation Assay in THP-1 Cells
THP-1 cells (ATCC, Cat #TIB-202), a human monocyte cell line derived from leukemia were plated at 2E6 cells/mL in 200 uL/well of RPMI 1640 (ThermoFisher, Cat #11835) in 96-well plates. Cells were treated with DMSO as a control and various concentrations of compounds for 48 hours. After the treatment, the culture media were collected. The PBS washed cell pellets were lysed in Lysis Buffer (Cell Signaling, Cat #9803) supplemented with 1XProtease Inhibitor Cocktail (Cell Signaling, Cat #5872). Gal3 levels in culture media and cell lysates were quantified by ELISA assays (Human Galectin-3 DuoSet ELISA kit, R&D Systems, Cat #DY1154) according to manufacturer's instructions. The cell culture media were also used for the assessment of cellular toxicity (LDH Assay kit, R&D Systems, DY994). The IC50 (degradation concentration at 50%) values were calculated based on the cellular Gal3 protein levels using DMSO as the control.

[4] = test 1, read-out: Supernatant (IC50) test 1
[5] = test 2, read-out: Supernatant (IC50) test 2

T1 sequence (Q96SW2 whole entry, the tested form may be a part): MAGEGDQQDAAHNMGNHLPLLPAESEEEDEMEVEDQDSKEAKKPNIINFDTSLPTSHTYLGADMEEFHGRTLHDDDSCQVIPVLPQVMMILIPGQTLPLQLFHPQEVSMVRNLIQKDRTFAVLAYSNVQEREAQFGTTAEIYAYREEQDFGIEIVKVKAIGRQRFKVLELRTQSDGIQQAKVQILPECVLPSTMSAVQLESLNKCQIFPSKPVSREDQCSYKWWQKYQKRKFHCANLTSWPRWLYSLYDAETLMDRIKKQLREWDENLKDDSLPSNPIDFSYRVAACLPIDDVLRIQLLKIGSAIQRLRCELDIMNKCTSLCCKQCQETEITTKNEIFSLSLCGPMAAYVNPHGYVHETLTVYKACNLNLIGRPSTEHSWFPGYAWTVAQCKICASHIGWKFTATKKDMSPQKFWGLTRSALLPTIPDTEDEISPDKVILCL
T2 sequence (P17931 whole entry): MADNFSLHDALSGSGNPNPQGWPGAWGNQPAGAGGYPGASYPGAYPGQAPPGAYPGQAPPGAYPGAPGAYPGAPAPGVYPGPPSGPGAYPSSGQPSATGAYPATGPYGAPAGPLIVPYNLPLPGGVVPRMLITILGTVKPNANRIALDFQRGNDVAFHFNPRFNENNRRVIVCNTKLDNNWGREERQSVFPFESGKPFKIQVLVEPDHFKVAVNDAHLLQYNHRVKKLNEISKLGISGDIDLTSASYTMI
His-tagged recombinant human Gal-3 (hGal-3), sequence (P17931 whole entry): as above

IC50 [1] | IC50 [2] | IC50 [3, 4] | IC50 [3, 5] | SMILES
66 nM | 810 nM |  |  | Cc1nc([C@@H]2O[C@H](CO)[C@H](O)[C@H](n3cc(-c4cc(F)c(Cl)c(F)c4)nn3)[C@H]2OCC(=O)NCCOCCOCCOCCNC(=O)c2ccc3c(c2)C(=O)N(C2CCC(=O)NC2=O)C3=O)n(-c2cc(Cl)ccc2C(F)(F)F)n1 (stereo partly shown) [Example 13]
212 nM | 2160 nM |  |  | Cc1nc([C@@H]2O[C@H](CO)[C@H](O)[C@H](n3cc(-c4cc(F)c(Cl)c(F)c4)nn3)[C@H]2OCC(=O)N(CCl)CCCOc2ccc(C(=O)Nc3ccc4c(c3)CN(C3CCC(=O)NC3=O)C4=O)cc2)n(-c2cc(Cl)ccc2C(F)(F)F)n1 (stereo partly shown) [Example 24]
109 nM | 269 nM |  |  | Cc1nc([C@@H]2O[C@H](CO)[C@H](O)[C@H](n3cc(-c4cc(F)c(Cl)c(F)c4)nn3)[C@H]2OCC(=O)NCc2ccc(C(=O)Nc3ccc4c(c3)CN(C3CCC(=O)NC3=O)C4=O)cc2)n(-c2cc(Cl)ccc2C(F)(F)F)n1 (stereo partly drawn) [Example 2, 4-((2-(((2S,3R,4S,5R,6R)-2-(1-(5-Chloro-2-(trifluoromethyl)phenyl)-3-methyl-1H-1,2,4-triazol-5-yl)-4-(4-(4-chloro-3,5-difluorophenyl)-1H-1,2,3-triazol-1-yl)-5-hydroxy-6-(hydroxymethyl)tetrahydro-2H-pyran-3-yl)oxy)acetamido)methyl)-N-(2-(2,6-dioxopiperidin-3-yl)-1-oxoisoindolin-5-yl)benzamide]
56 nM | 601 nM |  |  | Cc1nc([C@@H]2O[C@H](CO)[C@H](O)[C@H](n3cc(-c4cc(F)c(Cl)c(F)c4)nn3)[C@H]2OCC(=O)N2CC(COc3ccc(C(=O)Nc4ccc5c(c4)CN(C4CCC(=O)NC4=O)C5=O)cc3)C2)n(-c2cc(Cl)ccc2C(F)(F)F)n1 (stereo partly drawn) [Example 7, 4-((1-(2-(((2S,3R,4S,5R,6R)-2-(1-(5-Chloro-2-(trifluoromethyl)phenyl)-3-methyl-1H-1,2,4-triazol-5-yl)-4-(4-(4-chloro-3,5-difluorophenyl)-1H-1,2,3-triazol-1-yl)-5-hydroxy-6-(hydroxymethyl)tetrahydro-2H-pyran-3-yl)oxy)acetyl)azetidin-3-yl)methoxy)-N-(2-(2,6-dioxopiperidin-3-yl)-1-oxoisoindolin-5-yl)benzamide]
20 nM | 520 nM |  |  | Cc1nc([C@@H]2O[C@H](CO)[C@H](O)[C@H](n3cc(-c4cc(F)c(Cl)c(F)c4)nn3)[C@H]2OCC(=O)NCCOCCOCCNC(=O)COc2cccc3c2C(=O)N(C2CCC(=O)NC2=O)C3=O)n(-c2cc(Cl)ccc2C(F)(F)F)n1 (stereo partly shown) [Example 12]
85 nM | 8950 nM |  |  | Cc1nc([C@@H]2O[C@H](CO)[C@H](O)[C@H](n3cc(-c4cc(F)c(Cl)c(F)c4)nn3)[C@H]2OCC(=O)N2CC(COc3ccc(C(=O)Nc4ccc5c(c4)CN(C4CCC(=O)N(C)C4=O)C5=O)cc3)C2)n(-c2cc(Cl)ccc2C(F)(F)F)n1 (stereo partly drawn) [Example 9, 4-((1-(2-(((2S,3R,4S,5R,6R)-2-(1-(5-Chloro-2-(trifluoromethyl)phenyl)-3-methyl-1H-1,2,4-triazol-5-yl)-4-(4-(4-chloro-3,5-difluorophenyl)-1H-1,2,3-triazol-1-yl)-5-hydroxy-6-(hydroxymethyl)tetrahydro-2H-pyran-3-yl)oxy)acetyl)azetidin-3-yl)methoxy)-N-(2-(1-methyl-2,6-dioxopiperidin-3-yl)-1-oxoisoindolin-5-yl)benzamide]
98 nM | 10400 nM |  |  | Cc1nc([C@@H]2O[C@H](CO)[C@H](O)[C@H](n3cc(-c4cc(F)c(Cl)c(F)c4)nn3)[C@H]2OCC(=O)N2CC(Oc3ccc(C(=O)Nc4ccc5c(c4)CN(C4CCC(=O)N(C)C4=O)C5=O)cc3)C2)n(-c2cc(Cl)ccc2C(F)(F)F)n1 (stereo partly shown) [Example 28]
160 nM | 350 nM |  |  | Cc1nc([C@@H]2O[C@H](CO)[C@H](O)[C@H](n3cc(-c4cc(F)c(Cl)c(F)c4)nn3)[C@H]2OCC(=O)N2CC3(CC(COc4ccc(C(=O)Nc5ccc6c(c5)CN(C5CCC(=O)NC5=O)C6=O)cc4)C3)C2)n(-c2cc(Cl)ccc2C(F)(F)F)n1 (stereo partly shown) [Example 29]
25 nM | 1500 nM |  |  | Cc1nc([C@@H]2O[C@H](CO)[C@H](O)[C@H](n3cc(-c4cc(F)c(Cl)c(F)c4)nn3)[C@H]2OCC(=O)NCCOCCOCCNC(=O)c2ccc3c(c2)C(=O)N(C2CCC(=O)NC2=O)C3=O)n(-c2cc(Cl)ccc2C(F)(F)F)n1 (stereo partly shown) [Example 14]
420 nM | 380 nM |  |  | Cc1nc([C@@H]2O[C@H](CO)[C@H](O)[C@H](n3cc(-c4cc(F)c(Cl)c(F)c4)nn3)[C@H]2OCC(=O)N[C@H]2C[C@H](Oc3ccc(C(=O)Nc4ccc5c(c4)CN(C4CCC(=O)NC4=O)C5=O)cc3)C2)n(-c2cc(Cl)ccc2C(F)(F)F)n1 (stereo partly shown) [Example 15]
140 nM | > 50000 nM |  |  | Cc1nc([C@@H]2O[C@H](CO)[C@H](O)[C@H](n3cc(-c4cc(F)c(Cl)c(F)c4)nn3)[C@H]2OCC(=O)N[C@H]2C[C@H](Oc3ccc(C(=O)Nc4ccc5c(c4)CN(C4CCC(=O)N(C)C4=O)C5=O)cc3)C2)n(-c2cc(Cl)ccc2C(F)(F)F)n1 (stereo partly shown) [Example 17]
294 nM |  | 3400 nM | 3340 nM | Cc1nc([C@@H]2O[C@H](CO)[C@H](O)[C@H](n3cc(-c4cc(F)c(Cl)c(F)c4)nn3)[C@H]2OCC(=O)NCCOCC(=O)NCc2ccc(S(=O)(=O)Nc3ccc(C)c4c(C#N)c[nH]c34)cc2)n(-c2cc(Cl)ccc2C(F)(F)F)n1 [Example 22]
50 nM |  | 51 nM | 42 nM | Cc1nc([C@@H]2O[C@H](CO)[C@H](O)[C@H](n3cc(-c4cc(F)c(Cl)c(F)c4)nn3)[C@H]2OCC(=O)NCCOCC(=O)N[C@H](C(=O)N2C[C@H](O)C[C@H]2C(=O)NCc2ccc(-c3scnc3C)cc2)C(C)(C)C)n(-c2cc(Cl)ccc2C(F)(F)F)n1 [Example 20]
1010 nM |  | > 30000 nM | > 30000 nM | Cc1nc([C@@H]2O[C@H](CO)[C@H](O)[C@H](n3cc(-c4cc(F)c(Cl)c(F)c4)nn3)[C@H]2OCC(=O)N[C@H]2C[C@@H](Oc3ccc(C(=O)N[C@H](C(=O)N4C[C@H](O)C[C@H]4C(=O)NCc4ccc(-c5scnc5C)cc4)C(C)(C)C)nc3)C2)n(-c2cc(Cl)ccc2C(F)(F)F)n1 [Example 33]
